In the supplement of paper PMC8960247:
± gives the standard error.

tested on: 621-102 (TSC2-deficient); assay: relative viability vs DMSO; higher = less cytotoxic; details: 0.1 µM; serum: 10% FBS; 72 h
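Note: immortalized renal angiomyolipoma cells stably carrying empty vector or TSC2, dosed in 384-well plates in DMEM, viability normalized to vehicle-treated wells within each plate.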

Row | SMILES | relative viability
1 | C=CC(=O)N1CCC[C@@H](n2nc(-c3ccc(Oc4ccccc4)cc3)c3c(N)ncnc32)C1 | 108 ± 4.7%
2 | CC(=O)c1c(C)c2cnc(Nc3ccc(N4CCNCC4)cn3)nc2n(C2CCCC2)c1=O | 109 ± 5%
3 | CC(C)(C(=O)NCC(F)(F)C(F)(F)F)C(=O)N[C@@H]1C(=O)Nc2ccccc2-c2ccccc21 | 113.8 ± 0.66%
4 | CC(C)(C)Cn1c(N)nc2ccc(-c3[nH]c(C(C)(C)C)nc3-c3ccc(F)cc3)nc21 | 107 ± 4.4%
5 | CC(C)CC(=O)Nc1n[nH]c2c1CN(C(=O)C1CCN(C)CC1)C2(C)C | 93.5 ± 0.62%
6 | CC(C)c1cc(-c2ccc(F)c3ccccc23)nc(N)n1 | 94.6 ± 1.2%
7 | CC1(C)C(=O)N(CCN2CCC(C(=O)c3ccc(F)cc3)CC2)c2ccccc21 | 97.5 ± 1.1%
8 | CC1(C)CC(=O)c2c(C(F)(F)F)nn(-c3ccc(C(N)=O)c(N[C@H]4CC[C@H](OC(=O)CN)CC4)c3)c2C1 | 18.7 ± 2.5%
9 | CC1=C(C(=O)Nc2cc3cn[nH]c3cc2F)C(c2ccc(C(F)(F)F)cc2)CC(=O)N1 (stereo not drawn) | 108 ± 2%
10 | CN(C)Cc1ccc(-c2nc3cccc4c3n2CCNC4=O)cc1 | 119 ± 5%
11 | CN(c1ncccc1CNc1nc(Nc2ccc3c(c2)CC(=O)N3)ncc1C(F)(F)F)S(C)(=O)=O | 101 ± 1.2%
12 | CN1CCN(c2ccc([N+](=O)[O-])c3no[n+]([O-])c23)CC1 | 102 ± 1.3%
13 | CNC(=O)c1ccc(C)c(-n2c(C)cc(OCc3ccc(F)cc3F)c(Br)c2=O)c1 | 109 ± 1.6%
14 | CNCc1ccc(-c2[nH]c3cc(F)cc4c3c2CCNC4=O)cc1 | 126 ± 4%
15 | COC(=O)N1CCN(Cc2cccc(NC(=O)Nc3ccc(C)nc3)c2F)CC1 | 96.33 ± 0.19%
16 | COc1cc(Nc2ncc(F)c(Nc3ccc4c(n3)N(COP(=O)(O)O)C(=O)C(C)(C)O4)n2)cc(OC)c1OC | 94.91 ± 0.5%
17 | COc1cc(OC)c(/C=C/S(=O)(=O)Cc2ccc(OC)c(NCC(=O)O)c2)c(OC)c1 | 97.9 ± 1.3%
18 | COc1cc(OC)c(NC(=O)Nc2cc(C)on2)cc1Cl | 89.4 ± 4.5%
19 | COc1cc2ncnc(Nc3cccc(Br)c3)c2cc1OC | 105.5 ± 0.2%
20 | COc1ccc(-c2cc3c(C)nc(N)nc3n([C@H]3CC[C@H](OCCO)CC3)c2=O)cn1 | 65.6 ± 0.94%
21 | COc1ccc(-c2ccc3c(N4CCOCC4)nc(N4C[C@@H](C)O[C@@H](C)C4)nc3n2)cc1CO | 81.3 ± 2.2%

Row | SMILES | relative viability
22 | COc1cccc(-c2cc(=O)c3ccccc3o2)c1N | 104 ± 6%
23 | COc1cccc(Nc2c(C(N)=O)cnc3c(C)cc(S(=O)(=O)c4cccc(C(=O)N(C)C)c4)cc23)c1 | 104 ± 2.7%
24 | COc1ncc(-c2ccc3nccc(-c4ccnnc4)c3c2)cc1NS(=O)(=O)c1ccc(F)cc1F | 38.9 ± 1.5%
25 | C[C@@H](Oc1cc(-c2cnn(C3CCNCC3)c2)cnc1N)c1c(Cl)ccc(F)c1Cl | 106 ± 1.4%
26 | C[C@@H](Oc1cc(-n2cnc3ccc(CN4CCN(C)CC4)cc32)sc1C(N)=O)c1ccccc1C(F)(F)F | 45.3 ± 0.63%
27 | C[C@@H]1CN(CC(=O)Nc2ccc3c(c2)Cc2cccc(-c4cc(=O)cc(N5CCOCC5)o4)c2S3)C[C@H](C)O1 | 97.1 ± 2.1%
28 | Cc1ccc(CN2CCNCC2)cc1NC(=O)CNc1ccc(F)c(F)c1 | 104 ± 3.2%
29 | Cc1cccc(-c2nn3c(c2-c2ccnc4ccc(C(N)=O)cc24)CCC3)n1 | 109 ± 5.5%
30 | Cc1ccccc1-n1c(Cn2cnc3c(N)ncnc32)nc2cccc(C)c2c1=O | 116.3 ± 0.6%
31 | Cn1cc(-c2ccc3nnc(C(F)(F)c4ccc5ncccc5c4)n3n2)cn1 | 95.7 ± 1.9%
32 | NC1=N[C@@]2(c3cc(NC(=O)c4ccc(F)cn4)ccc3F)COC[C@H]2CS1 | 100 ± 1.3%
33 | Nc1nc(Nc2ccc(S(N)(=O)=O)cc2)nn1C(=O)c1c(F)cccc1F | 104 ± 1.3%
34 | O=C(NOCC(O)CO)c1cc(Br)c(F)c(F)c1Nc1ccc(I)cc1F (stereo not drawn) | 106 ± 1.1%
35 | O=C(NOC[C@H](O)CO)c1ccc(F)c(F)c1Nc1ccc(I)cc1F | 106.2 ± 0.49%
36 | O=C(c1ccc(F)cc1)N1CCC[C@H](c2nc(-c3ccc(F)cc3)no2)C1 | 104.7 ± 0.73%
37 | O=C1NC(=O)/C(=C/c2ccc3nccc(-c4ccncc4)c3c2)S1 | 97.8 ± 5.1%
38 | O=c1cc(-c2cccc3c2Sc2ccccc2S3)oc(N2CCOCC2)c1 | 94.4 ± 1.1%
39 | O=c1cc(N2CCOCC2)oc2c(-c3ccccc3)cccc12 | 113.8 ± 0.48%
40 | OCCn1cc(-c2cnc3nnn(Cc4ccc5ncccc5c4)c3n2)cn1 | 100 ± 3.4%
41 | Oc1ccc([C@@H]2Oc3ccc(O)cc3[C@@H]3CCC[C@@H]32)cc1 | 108 ± 2.7%
42 | c1ccc2c(CCNc3ccc(Nc4ccncc4)cc3)c[nH]c2c1 | 114 ± 1.4%

same assay, conditions: 1 µM; serum: 10% FBS; 72 h

Row | SMILES | relative viability
43 | C=CC(=O)N1CCC[C@@H](n2nc(-c3ccc(Oc4ccccc4)cc3)c3c(N)ncnc32)C1 | 112.7 ± 0.33%
44 | CC(=O)c1c(C)c2cnc(Nc3ccc(N4CCNCC4)cn3)nc2n(C2CCCC2)c1=O | 115 ± 1.2%
45 | CC(C)(C(=O)NCC(F)(F)C(F)(F)F)C(=O)N[C@@H]1C(=O)Nc2ccccc2-c2ccccc21 | 114.3 ± 1.1%
46 | CC(C)(C)Cn1c(N)nc2ccc(-c3[nH]c(C(C)(C)C)nc3-c3ccc(F)cc3)nc21 | 99.1 ± 3.6%
47 | CC(C)CC(=O)Nc1n[nH]c2c1CN(C(=O)C1CCN(C)CC1)C2(C)C | 79 ± 1.2%
48 | CC(C)c1cc(-c2ccc(F)c3ccccc23)nc(N)n1 | 93.4 ± 2.1%
49 | CC1(C)C(=O)N(CCN2CCC(C(=O)c3ccc(F)cc3)CC2)c2ccccc21 | 97 ± 1.2%
50 | CC1(C)CC(=O)c2c(C(F)(F)F)nn(-c3ccc(C(N)=O)c(N[C@H]4CC[C@H](OC(=O)CN)CC4)c3)c2C1 | 13.6 ± 2.5%
51 | CC1=C(C(=O)Nc2cc3cn[nH]c3cc2F)C(c2ccc(C(F)(F)F)cc2)CC(=O)N1 (stereo not drawn) | 106 ± 2.2%
52 | CN(C)Cc1ccc(-c2nc3cccc4c3n2CCNC4=O)cc1 | 118 ± 2.8%
53 | CN(c1ncccc1CNc1nc(Nc2ccc3c(c2)CC(=O)N3)ncc1C(F)(F)F)S(C)(=O)=O | 94.8 ± 5.8%
54 | CN1CCN(c2ccc([N+](=O)[O-])c3no[n+]([O-])c23)CC1 | 103 ± 1.9%
55 | CNC(=O)c1ccc(C)c(-n2c(C)cc(OCc3ccc(F)cc3F)c(Br)c2=O)c1 | 97.8 ± 1.9%
56 | CNCc1ccc(-c2[nH]c3cc(F)cc4c3c2CCNC4=O)cc1 | 120 ± 1.7%
57 | COC(=O)N1CCN(Cc2cccc(NC(=O)Nc3ccc(C)nc3)c2F)CC1 | 85.15 ± 0.1%
58 | COc1cc(Nc2ncc(F)c(Nc3ccc4c(n3)N(COP(=O)(O)O)C(=O)C(C)(C)O4)n2)cc(OC)c1OC | 87.5 ± 2%
59 | COc1cc(OC)c(/C=C/S(=O)(=O)Cc2ccc(OC)c(NCC(=O)O)c2)c(OC)c1 | 42 ± 1.4%
60 | COc1cc(OC)c(NC(=O)Nc2cc(C)on2)cc1Cl | 96.7 ± 7%
61 | COc1cc2ncnc(Nc3cccc(Br)c3)c2cc1OC | 107.6 ± 0.58%
62 | COc1ccc(-c2cc3c(C)nc(N)nc3n([C@H]3CC[C@H](OCCO)CC3)c2=O)cn1 | 26.7 ± 0.68%
63 | COc1ccc(-c2ccc3c(N4CCOCC4)nc(N4C[C@@H](C)O[C@@H](C)C4)nc3n2)cc1CO | 70.087 ± 0.057%
